Data taken from US20100087788A1, “Anti-infective alcohol catheter solution with chlorhexidine treated catheter” (priority 2006, published 2010).

Legend:
[1] = system: most commonly encountered infectious pathogens; details: conclusion from Table 1
Procedure: (§1) Determinations of Minimum Inhibitory Concentration (MIC) and Minimum Bacteriocidal Concentration (MBC) were performed using standard microbiological techniques. Chlorhexidine diacetate was tested at the following μg/mL concentrations: 256, 128, 64, 32, 16, 8, 4, 2, 1, 0.5, 0.25, and 0.125. Ethanol was tested at the following percent (%) concentrations: 50, 40, 30, 25, 20, 15, 12, 10, 7, and 5. Dilutions were prepared in Cationic Adjusted Mueller Hinton Broth (CAMHB). All tests were performed in microtiter plates with a total test volume of 100 μL, including diluted antimicrobial agent and inoculum. Concentrations of antimicrobial agents were prepared at 2× concentration, and 50 μL was added to each well of a microtiter plate, to which 50 μL of inoculum of the test organism was added to give the target test concentration.
(§2) Inoculum was prepared by transfer of isolated colonies from agar plates to 10 mL of trypticase soy broth (TSB), and incubation at 37° C. for 4 hrs. Cells were subsequently centrifuged, and resuspended twice in phosphate buffered saline. The population of this bacterial suspension was determined by reading optical density at 670 nm. Final concentrations of inoculum were adjusted to a range of approximately 5×10^4 cfu/mL, using CAMHB as a diluent. Initial concentrations were verified using the Miles and Misra drop count method. To each test well of a microtiter plate, 50 μl of inoculum was added along with 50 μl of the 2× concentration of the antimicrobial agent being tested. Incubation was at 37° C. for 16 to 20 hours.
(§3) To determine MBC values, 50 μl was removed from each well showing inhibition of growth (MIC and greater). Solutions from these inhibitory concentrations of antimicrobial agent were diluted in CAMHB to concentrations where they would no longer inhibit the growth of the test organism. Recovery counts were obtained by plating aliquots of the diluted material onto TSA plate containing 5% sheep's blood, and incubating 24 hours at 37° C.

K. pneumoniae ATCC 10031 = details: ethanol
Procedure: as §1, §2, §3

[2] = system: S. epidermidis ATCC 35983; details: ethanol
Procedure: as §1, §2, §3

C. albicans ATCC 10231 = details: ethanol
Procedure: as §1, §2, §3

P. aeruginosa ATCC 27853 = details: ethanol
Procedure: as §1, §2, §3

E. cloacae ATCC 13047 = details: ethanol
Procedure: as §1, §2, §3

E. faecalis ATCC 51299 = details: ethanol
Procedure: as §1, §2, §3

E. coli ATCC 25922 = details: ethanol
Procedure: as §1, §2, §3

S. aureus ATCC 29213 = details: ethanol
Procedure: as §1, §2, §3

most microorganisms = details: Sissons et al. 1996; cited from earlier work
[3] = Solubility of chlorhexidine salts in ethanol (100%) and water; type: physicochemical; details: for Ethanol Solubility: ethanol (100%)
E. faecalis = assay: MBC of chlorhexidine diacetate alone and at 80% of the ethanol MIC; type: cell-based
Procedure: as §1
as §2, with “To each test well of a microtiter plate, 50 μl of inoculum was added along with 50 μl of the 2× concentration of the antimicrobial agent being tested. Incubation was at 37° C. for 16 to 20 hours.” left out

E. coli = assay: as above; type: cell-based
Text: (§4) The synergy of ethanol and chlorhexidine is illustrated in Table 2 by measurement of the minimum bacteriocidal concentration (MBC) of chlorhexidine at ethanol concentrations that are subinhibitory (80% of the ethanol minimum inhibitory concentration).

S. aureus = assay: as above; type: cell-based
Text: as §4

[4] = system: E. faecalis, S. aureus, E. coli; assay: Change of chlorhexidine MBC at subinhibitory ethanol (summary of Table 2); type: cell-based; details: ethanol at 80% of the ethanol MIC
Procedure: as §1
as §2, with “To each test well of a microtiter plate, 50 μl of inoculum was added along with 50 μl of the 2× concentration of the antimicrobial agent being tested. Incubation was at 37° C. for 16 to 20 hours.” left out

[5] = Release kinetics of chlorhexidine from loaded catheter segments; type: physicochemical; details: catheter segments 200 micrograms/cm
Procedure: 5Fr Catheter segments were bulk impregnated with chlorhexidine base (CHX) by soaking in an ethyl acetate solution of CHX and then evaporating the solvent. The chlorhexidine mass per unit length was determined by dissolving the catheter […] extracting the chlorhexidine. The measure mass of chlorhexidine was approximately 200 micrograms per cm. 5Fr catheter segments were similarly impregnated with chlorhexidine diacetate to a level of 200 micrograms/cm by soaking in an ethyl acetate-methanol solution followed by evaporation. These segments were used in Zone of inhibition testing and release kinetics testing.
Release kinetics measurements were performed of chlorhexidine base (CHX) and chlorhexidine diacetate (CHA) loaded catheter segments (200 micrograms/cm) in water and in 25% ethanol lock. One cm long catheter segments were placed in 10 ml of 25% ethanol lock solution. At each sampling point the eluting solution was removed and replaced with fresh solution. The amount of chlorhexidine released was measured by UV absorbance readings at 263 nm on the eluting lock solution relative to a reference curve of chlorhexidine standards prepared to known concentrations in 25% ethanol lock. Cumulative % release was calculated from the measured amount released at each time point and the quantity of chlorhexidine loaded into the catheter segments.

For `CCO` [ethanol], the “ethanol concentration at which the solution will not inhibit microbial growth” value [1] was “below 7%”, the “ethanol lock concentration cidal towards most commonly encountered infectious pathogens” value [1] was “above 25%” and the MBC (K. pneumoniae ATCC 10031) was 25%. The MIC (K. pneumoniae ATCC 10031; CAMHB, 37° C., 16 to 20 hours) was 10%, the MBC [2] was 10-12% and the MIC ([2]; CAMHB, 37° C., 16 to 20 hours) was 12%. The MBC (C. albicans ATCC 10231) was 10%, the MIC (C. albicans ATCC 10231; CAMHB, 37° C., 16 to 20 hours) was 7% and the MBC (P. aeruginosa ATCC 27853) was 12%. For the same compound, the MIC (P. aeruginosa ATCC 27853; CAMHB, 37° C., 16 to 20 hours) was 7%, the MBC (E. cloacae ATCC 13047) was 10% and the MIC (E. cloacae ATCC 13047; CAMHB, 37° C., 16 to 20 hours) was 7%. For the same compound, the MBC (E. faecalis ATCC 51299) was 10%, the MIC (E. faecalis ATCC 51299; CAMHB, 37° C., 16 to 20 hours) was 7% and the MBC (E. coli ATCC 25922) was 15%. It also gave an MIC (E. coli ATCC 25922; CAMHB, 37° C., 16 to 20 hours) of 10%, an MBC (S. aureus ATCC 29213) of 25% and an MIC (S. aureus ATCC 29213; CAMHB, 37° C., 16 to 20 hours) of 12%. For the same compound, the “concentration that inhibits the growth of most microorganisms” value (most microorganisms) was 10% and the “concentrations generally considered bactericidal” value (most microorganisms) was no less than 40%.
In the case of Laurate, the “Ethanol Solubility” value [3] is reported as 200 mg/mL and the “Water Solubility” value [3] is reported as 0.01 mg/mL.
With `CCCCC(=O)O.CCCCC(=O)O.N=C(NCCCCCCNC(=N)NC(=N)Nc1ccc(Cl)cc1)NC(=N)Nc1ccc(Cl)cc1` [Valerate] the “Ethanol Solubility” value [3] was 20 mg/mL and the “Water Solubility” value [3] was 1.2 mg/mL.
With `CC(=O)O.CC(=O)O.NC(=N\CCCCCC/N=C(N)/N=C(\N)Nc1ccc(Cl)cc1)/N=C(\N)Nc1ccc(Cl)cc1` [CHA, chlorhexidine diacetate] the “MBC for CHA @ 80% MIC ETOH” value (E. faecalis; ethanol 5.6% (80% of MIC)) was 4 µg/mL, the “MBC for CHA” value (E. faecalis; no ethanol) was 8 µg/mL and the “MBC for CHA @ 80% MIC ETOH” value (E. coli; ethanol 8% (80% of MIC)) was 2 µg/mL. The “MBC for CHA” value (E. coli; no ethanol) was 4 µg/mL, the “MBC for CHA @ 80% MIC ETOH” value (S. aureus; ethanol 9.6% (80% of MIC)) was 1 µg/mL and the “MBC for CHA” value (S. aureus; no ethanol) was 1 to 2 µg/mL. For the same compound, the “drop of chlorhexidine MBC in the presence of subinhibitory ethanol concentrations” value [4] was “approximately 50%” and the “release of chlorhexidine from catheter into 25% ethanol lock solution, compared with chlorhexidine base (FIG. 2)” value [5] was “releases faster”.
